≈ marks a conversion by molar mass, not a printed value. Like-named read-outs stand apart in the source and are kept apart here.
Columns and labels:
E. coli MG1655 [1] = test: Microscopic observation of cell shape; assay type: cell-based
Protocol: Microscopic observation. E. coli K-12 strain MG1655 (F^− λ^−) was grown in Lennox broth containing 1% Polypepton, 0.5% yeast extract, 0.5% NaCl, and 0.1% glucose (pH 7.2). Cells spread on a slide glass were treated with methanol for 5 min and covered with poly-L-lysine. The fixed cells were observed by the differential interference contrast system through an Axioskop 2 microscope (Carl Zeiss Co., Ltd., Oberkochen, Germany). To observe the anucleate cells, cells were stained with a 4′,6-diamidino-2-phenylindole (DAPI) solution (5 μg/ml in saline) and then observed by the fluorescence phase-contrast combined method.
The effect of each compound on E. coli cell morphology was next examined.

B. subtilis 168 = test: Determination of minimum inhibitory concentration (MIC); assay type: cell-based, Bacillus subtilis; conditions: for MIC B. subtilis: Example 2
Protocol: (§1) Determination of minimum inhibitory concentration (MIC). MICs were also determined on Mueller Hinton agar plates (0.2% beef extract, 1.75% acid digest of casein, 0.15% soluble starch, 1.5% agar, pH 7.3).
(§2) Determination of MIC Minimal inhibitory concentrations (MICs) were determined using a standard 2-fold serial dilution format on L agar plates. Ten microliters of stationary culture diluted in 0.85% NaCl to 10^6 cells/ml were spotted on per plate. […] MICs were also determined on Mueller Hinton agar plates (0.2% beef extract, 1.75% acid digest of casein, 0.15% soluble starch, 1.5% agar, pH 7.3).

E. coli MG1655 [2] = test: as above; assay type: cell-based; conditions: for MIC: Escherichia coli; for MIC E. coli: Example 2
Protocol: as §1, §2

[3] = tested on: E. coli K-12 strain SH3210; test: Anucleate cell blue assay; assay type: cell-based
Protocol: Anucleate cell blue assay. The anucleate cell blue assay was carried out as reported previously. Briefly, E. coli K-12 strain SH3210 (ΔtrpE5 his λ pXX747) was grown in a P medium containing 1% Polypepton and 0.5% NaCl (pH 7). Paper disks (φ 8 mm) each soaked with 20 μl of a sample solution were placed on P medium agar plates (1.5% agar) containing 10^4 cells/ml of SH3210 and 40 μg/ml of 5-bromo-4-chloro-3-indolyl β-D-galactoside. The plates were incubated at 42° C. for 24 h, and the development of a blue color and the growth inhibitory zone around the paper disks were evaluated.
Since 1 had originally been found through screening by an anucleate cell blue assay, the effect of each compound was first examined by this assay.

S. typhimurium NBRC13245 = test: Determination of minimum inhibitory concentration (MIC); assay type: cell-based, Salmonella typhimurium; conditions: for MIC: Salmonella enterica, read-out: MIC S. typhimurium
Protocol: as §1, §2

P. putida NBRC14164 = test: as above; assay type: cell-based, Pseudomonas putida; conditions: for MIC P. putida: Example 2; for MIC: Pseudomonas putida
Protocol: as §1, §2

[4] = tested on: S. aureus subsp. aureus NBRC15035; test: as above; assay type: cell-based, Staphylococcus aureus; conditions: for MIC S. aureus: Example 2; for MIC: Staphylococcus aureus
Protocol: as §1, §2

Caulobacter = Caulobacter morphology (DIC images); assay type: cell-based, Caulobacter crescentus; conditions: drugs that affect eukaryotic actin
Excerpt: Consistent with previous observations in E. coli (Iwai et al., 2002), A22 caused a dose-dependent alteration of Caulobacter morphology, transforming normal, crescent-shaped cells into rounded, lemon-shaped cells. The progression of cell shape deformation by A22 treatment was qualitatively similar to that caused by mreB depletion, though the A22 effect was more rapid (FIGS. […]). […] For example, A22 could disrupt the localization of new cell wall synthesis but have no effect on the existing cell wall, such that without additional growth and wall synthesis A22's effects cannot be perceived. A dependence on cell growth could also explain why A22's effect on morphology takes several hours to manifest.
Microscopy and Timelapse Imaging. All experiments other than the A22 flow-cell analysis were performed by mounting the samples on 1% agarose pads as described, with the appropriate concentration of A22 added to the agarose. The rates of origin-distal locus segregation were determined by inducing PxyI:lacI:cfp expression with 0.03% xylose for 75 min, isolating swarmer cells, and growing the swarmer cells in M2G liquid medium for 50 min. After 50 min, 10 μg/ml of A22 was added to these liquid cultures, they were mounted onto 1% M2G agarose pads containing 10 μg/ml A22, and a phase and CFP fluorescence image was captured every 2 min for 60 min. The images were analyzed by previously described software to determine the average position and rate of movement of the observed foci.

HoIB-GFP = HoIB-GFP (replisome) localization; assay type: cell-based, Caulobacter crescentus; conditions: 1 hr treatment
Protocol: To assess the ability of these cells to assemble a replisome at the replication origins, A22 was administered to cells expressing a fusion of GFP to the HoIB subunit of DNA polymerase.

[5] = E. coli MG1655 treated at 300 μg/ml (**), 30° C., 16 h
[6] = Example 2, methods as in Example 1
[7] = Bacillus subtilis, 168, read-out: MIC B. subtilis
[8] = NBRC14164, read-out: MIC P. putida
[9] = NBRC15035, read-out: MIC S. aureus
[10] = Bacillus subtilis, 168, Example 2, methods as in Example 1, read-out: MIC B. subtilis
[11] = Bacillus subtilis, 168, Table 1, B. subtilis 168, read-out: MIC B. subtilis
[12] = MG1655, Example 2, methods as in Example 1, read-out: MIC E. coli
[13] = MG1655, Table 1, E. coli MG1655, read-out: MIC E. coli
[14] = NBRC14164, Example 2, methods as in Example 1, read-out: MIC P. putida
[15] = NBRC14164, Table 1, NBRC14164, read-out: MIC P. putida
[16] = NBRC15035, Example 2, methods as in Example 1, read-out: MIC S. aureus
[17] = NBRC15035, Table 1, NBRC15035, read-out: MIC S. aureus

`O=C=NCc1ccccc1` [Compound 9, benzylisocyanate, reference compound] was tested, and the Shape (E. coli MG1655 [1]; [5]) was “Rod**”, the Shape (E. coli MG1655 [1]; [6]) was “Rod” and the MIC (B. subtilis 168; [7]) was > 100 µg/mL. For the same molecule, the “MIC B. subtilis” value (B. subtilis 168; methods as in Example 1) was >100 µg/mL, the MIC (E. coli MG1655 [2]; MG1655, read-out: MIC E. coli) was > 100 µg/mL and the “MIC E. coli” value (E. coli MG1655 [2]; methods as in Example 1) was >100 µg/mL. For the same molecule, the “Growth inhibitory zone and blue zone in the anucleate cell blue assay (in words)” value (from here on “Growth inhibitory zone and blue zone”) [3] was “neither a growth inhibitory zone nor blue zone”, the “MIC S. typhimurium” value (S. typhimurium NBRC13245; [6]) was >100 µg/mL and the MIC (S. typhimurium NBRC13245) was > 100 µg/mL. For the same molecule, the “MIC P. putida” value (P. putida NBRC14164; methods as in Example 1) was >100 µg/mL, the MIC (P. putida NBRC14164; [8]) was > 100 µg/mL and the “MIC S. aureus” value ([4]; methods as in Example 1) was >100 µg/mL. For the same molecule, the MIC [4, 9] was > 100 µg/mL.
`N#CSCc1ccccc1` [Compound 7, S-benzylithiocyanate, reference compound] was tested, and the Shape (E. coli MG1655 [1]; E. coli MG1655 treated at 3×MIC (*), 30° C., 16 h) was “Rod*”, the Shape (E. coli MG1655 [1]; [6]) was “Rod” and the MIC (B. subtilis 168; [7]) was > 100 µg/mL. The “MIC B. subtilis” value (B. subtilis 168; methods as in Example 1) was >100 µg/mL, the MIC (E. coli MG1655 [2]; MG1655, read-out: MIC E. coli) was > 100 µg/mL and the “MIC E. coli” value (E. coli MG1655 [2]; methods as in Example 1) was >100 µg/mL. The “Growth inhibitory zone and blue zone” value [3] was “neither a growth inhibitory zone nor blue zone”, the “MIC S. typhimurium” value (S. typhimurium NBRC13245; [6]) was >100 µg/mL and the MIC (S. typhimurium NBRC13245) was > 100 µg/mL. The “MIC P. putida” value (P. putida NBRC14164; methods as in Example 1) was >100 µg/mL, the MIC (P. putida NBRC14164; [8]) was > 100 µg/mL and the “MIC S. aureus” value ([4]; methods as in Example 1) was >100 µg/mL. For the same molecule, the MIC [4, 9] was > 100 µg/mL.
`CCSC(=N)N` [Compound 6, S-ethylisothiourea] was tested, and the Shape (E. coli MG1655 [1]; [5]) was “Rod**”, the Shape (E. coli MG1655 [1]; [6]) was “Rod” and the MIC (B. subtilis 168; [7]) was > 100 µg/mL. For the same molecule, the “MIC B. subtilis” value (B. subtilis 168; methods as in Example 1) was >100 µg/mL, the MIC (E. coli MG1655 [2]; MG1655, read-out: MIC E. coli) was > 100 µg/mL and the “MIC E. coli” value (E. coli MG1655 [2]; methods as in Example 1) was >100 µg/mL. For the same molecule, the “Growth inhibitory zone and blue zone” value [3] was “neither a growth inhibitory zone nor blue zone”, the “MIC S. typhimurium” value (S. typhimurium NBRC13245; [6]) was >100 µg/mL and the MIC (S. typhimurium NBRC13245) was > 100 µg/mL. For the same molecule, the “MIC P. putida” value (P. putida NBRC14164; methods as in Example 1) was >100 µg/mL, the MIC (P. putida NBRC14164; [8]) was > 100 µg/mL and the “MIC S. aureus” value ([4]; methods as in Example 1) was >100 µg/mL. For the same molecule, the MIC [4, 9] was > 100 µg/mL.
For `S=C=NCc1ccccc1` [Compound 8, benzylisothiocyanate, reference compound], the Shape (E. coli MG1655 [1]; [5]) was “Rod**”, the Shape (E. coli MG1655 [1]; [6]) was “Rod” and the MIC (B. subtilis 168; [10]) was 25 µg/mL (≈ 168 µM). It also gave an MIC (B. subtilis 168; [11]) of 25 µg/mL (≈ 168 µM), an MIC (E. coli MG1655 [2]; [12]) of 50 µg/mL (≈ 335 µM) and an MIC (E. coli MG1655 [2]; [13]) of 50 µg/mL (≈ 335 µM). The “Growth inhibitory zone and blue zone” value [3] was “a growth inhibitory zone, but no blue zone developed”, the MIC (S. typhimurium NBRC13245; [6]) was 100 µg/mL (≈ 670 µM) and the MIC (S. typhimurium NBRC13245; Table 1, NBRC13245) was 100 µg/mL (≈ 670 µM). For the same molecule, the MIC (P. putida NBRC14164; [14]) was > 100 µg/mL, the MIC (P. putida NBRC14164; [15]) was > 100 µg/mL and the MIC [4, 16] was 12.5 µg/mL (≈ 83.8 µM). It also gave an MIC [4, 17] of 12.5 µg/mL (≈ 83.8 µM).
For latrunculin, the “Caulobacter growth rate or morphology” value (Caulobacter) was “failed to perturb growth rate or morphology”.
For `N=C(N)SCC1CCCCC1` [Compound 4], the “Effect on E. coli cell morphology (in words)” value (E. coli MG1655 [1]; 3×MIC or 300 μg/ml, 30° C., 16 hrs) was “shorter than corresponding untreated cells, but spherical cells were not induced”, the Shape (E. coli MG1655 [1]; [5]) was “Rod**” and the Shape (E. coli MG1655 [1]; [6]) was “Short Rod”. For the same molecule, the MIC (B. subtilis 168; [10]) was > 200 µg/mL, the MIC (B. subtilis 168; [11]) was > 100 µg/mL and the MIC (E. coli MG1655 [2]; [12]) was > 200 µg/mL. The MIC (E. coli MG1655 [2]; [13]) was > 100 µg/mL, the “Growth inhibitory zone and blue zone” value [3] was “neither a growth inhibitory zone nor blue zone” and the MIC (S. typhimurium NBRC13245; [6]) was > 200 µg/mL. The MIC (S. typhimurium NBRC13245; Table 1, NBRC13245) was > 100 µg/mL, the MIC (P. putida NBRC14164; [14]) was > 200 µg/mL and the MIC (P. putida NBRC14164; [15]) was > 100 µg/mL. For the same molecule, the MIC [4, 16] was > 200 µg/mL and the MIC [4, 17] was > 100 µg/mL.
With `CO[C@@H]1[C@@H](OC(N)=O)[C@@H](O)[C@H](Oc2ccc3c(O)c(NC(=O)c4ccc(O)c(CC=C(C)C)c4)c(=O)oc3c2C)OC1(C)C` [novobiocin] the HoIB-GFP localization (HoIB-GFP) was “rapid delocalization of HoIB-GFP”.
